This note sets out measurements from article PMC7546441 (Nature chemical biology, 2019).

The target of one assay is Bs GDH (Bacillus subtilis, UniProt P12310). The experiment in a line: full steady-state kinetics, ordered bi-bi fit, […] nm. The format is biochemical. The conditions noted are these: cofactor and glucose varied, 35 mM Tris-HCl pH 8.0, 25 °C.
The target of another assay is XenA (Pseudomonas putida, UniProt Q9R9V9). The experiment in a line: initial rate, absorbance at […] nm. It counts as biochemical. The conditions noted are these: 0.2 mM NMNH, 5 mM ketoisophorone, 200 mM phosphate pH 7.5, 37 °C.

Bs GDH, sequence (P12310 whole entry): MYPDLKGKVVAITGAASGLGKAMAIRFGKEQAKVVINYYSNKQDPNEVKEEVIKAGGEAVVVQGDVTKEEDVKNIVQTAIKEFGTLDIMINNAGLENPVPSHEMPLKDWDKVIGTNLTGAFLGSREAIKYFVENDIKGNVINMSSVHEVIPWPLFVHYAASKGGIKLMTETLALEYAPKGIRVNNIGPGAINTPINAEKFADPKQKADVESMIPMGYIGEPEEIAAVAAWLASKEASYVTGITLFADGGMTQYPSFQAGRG

As for `OC[C@H]1OC(O)[C@H](O)[C@@H](O)[C@@H]1O` (stereo partly drawn) [D-glucose], at Bs GDH, the KB result is “KA and KB are Michaelis constants for cofactor and substrate, respectively”.

Regarding `NC(=O)C1=CN([C@@H]2O[C@H](COP(=O)(O)O)[C@@H](O)[C@H]2O)C=CC1` [NMNH], at XenA, the “initial rate, absorbance at 340 nm” value is on record as “reduced NMN^+ (NMNH) was also well accepted by XenA”.
